Like-named read-outs stand apart in the source and are kept apart here.
Legend:
HCT116 cells = test: Re-expression of DCR1 (qRT-PCR) in HCT116 after inhibition of DNA methyltransferases; type: cell-based, Human; conditions: HCT116 (65% methylated for DCR1), 5000 nM for 3 days, p=0.005
Method: To investigate re-expression of DCR1 after inhibition of DNA metyltransferases, HCT116 cells were treated with 5000 nM 5-aza-2′-deoxycytidine for 3 days (DAC, Sigma Chemical Co., St. Louis. Mo., USA).
Total RNA was isolated using TriZoI reagent (Invitrogen, Breda, The Netherlands), and subjected to purification using RNeasy Mini Kit (Qiagen). After DNAse treatment (RQI DNAse, Promega, Leiden, The Netherlands). cDNA was made with the Iscript cDNA Synthesis Kit (BioRad, Veenendaal, The Netherlands). Quantitative RT-PCR was done using TaqMan® Gene Expression Assays from Applied Biosystems directed to DCR1 (Hs00182570_m1) and B2M (Hs00984230_m1). Relative expression levels were determined by calculating the Ct-ratio (Ct ratio=2̂−(Ct DCR1−Ct B2M)).
Student's T-test was used for comparison of DCR1 expression levels before and after DAC and TSA treatment of HCT116.

[1] = tested on: patients with metastatic CRC; test: CAIRO arm A: response to single agent irinotecan in second line by DCR1 methylation; type: in vivo, human; conditions: 65 patients from arm A, data not shown
[2] = tested on: patients with metastatic CRC; conditions: first-line therapy, discovery set; for HR (methylated vs unmethylated): PFS
[3] = tested on: patients with CRC (CAIROII); conditions: CAIRO II patients, estimate from literature; cited from earlier work

Nc1ncn([C@H]2C[C@H](O)[C@@H](CO)O2)c(=O)n1 [5-aza-2′-deoxycytidine]
DCR1 expression (qRT-PCR) after treatment (HCT116 cells): significant increased DCR1 expression

CCc1c2c(nc3ccc(OC(=O)N4CCC(N5CCCCC5)CC4)cc13)-c1cc3c(c(=O)n1C2)COC(=O)[C@]3(O)CC [irinotecan, Irinotecan]
association of DCR1 methylation with response to single agent second-line therapy [1]: a similar trend was observed, although not statistically significant

CCCCCOC(=O)Nc1nc(=O)n([C@@H]2O[C@H](C)[C@@H](O)[C@H]2O)cc1F [Capecitabine]
HR (methylated vs unmethylated) ([2]; BK methylation): 1.1 | HR (methylated vs unmethylated) ([2]; CAT methylation): 0.9 | HR (methylated vs unmethylated) ([2]; CCND2 methylation): 1.3 | HR (methylated vs unmethylated) ([2]; CDK5 methylation): 0.7 | HR (methylated vs unmethylated) ([2]; DAPK1 methylation): 1.0 | HR (methylated vs unmethylated) ([2]; DCR1 methylation): 1.4 | HR (methylated vs unmethylated) ([2]; EEF1A2 (1 assay methylation)): 1.2 | HR (methylated vs unmethylated) ([2]; EEF1A2 (2 assay methylation)): 1.3 | HR (methylated vs unmethylated) ([2]; HOXA9 methylation): 0.8 | HR (methylated vs unmethylated) ([2]; IRAK1 methylation): 1.6 | HR (methylated vs unmethylated) ([2]; LIG4 methylation): 1.2 | HR (methylated vs unmethylated) ([2]; NUDT1 methylation): 1.5 | HR (methylated vs unmethylated) ([2]; PAX3 (1) assay methylation): 1.2 | HR (methylated vs unmethylated) ([2]; PAX3 (2) assay methylation): 1.3 | HR (methylated vs unmethylated) ([2]; PRKCB1 methylation): 1.1 | HR (methylated vs unmethylated) ([2]; PROK2 methylation): 0.8 | HR (methylated vs unmethylated) ([2]; PROP1 methylation): 2.0 | HR (methylated vs unmethylated) ([2]; PTGS2 methylation): 1.1 | HR (methylated vs unmethylated) ([2]; RASSF1 methylation): 1.2 | HR (methylated vs unmethylated) ([2]; RBBP8 methylation): 0.9 | HR (methylated vs unmethylated) ([2]; RHOB methylation): 0.7 | HR (methylated vs unmethylated) ([2]; SPO11 methylation): 1.4 | HR (methylated vs unmethylated) ([2]; TBX5 methylation): 2.3 | HR (methylated vs unmethylated) ([2]; TIPARP methylation): 0.9 | Median PFS ([2]; BK methylated (M) tumours): 149 days | Median PFS ([2]; BK unmethylated (U) tumours): 188 days | Median PFS ([2]; CAT methylated (M) tumours): 116 days | Median PFS ([2]; CAT unmethylated (U) tumours): 190 days | Median PFS ([2]; CCND2 methylated (M) tumours): 202 days | Median PFS ([2]; CCND2 unmethylated (U) tumours): 156 days | Median PFS ([2]; CDK5 methylated (M) tumours): 125 days | Median PFS ([2]; CDK5 unmethylated (U) tumours): 191 days | Median PFS ([2]; DAPK1 methylated (M) tumours): 144 days | Median PFS ([2]; DAPK1 unmethylated (U) tumours): 188 days | Median PFS ([2]; DCR1 methylated (M) tumours): 184 days | Median PFS ([2]; DCR1 unmethylated (U) tumours): 178 days | Median PFS ([2]; EEF1A2 (1 assay methylated (M) tumours)): 202 days | Median PFS ([2]; EEF1A2 (1 assay unmethylated (U) tumours)): 168 days | Median PFS ([2]; EEF1A2 (2 assay methylated (M) tumours)): 246 days | Median PFS ([2]; EEF1A2 (2 assay unmethylated (U) tumours)): 177 days | Median PFS ([2]; HOXA9 methylated (M) tumours): 168 days | Median PFS ([2]; HOXA9 unmethylated (U) tumours): 191 days | Median PFS ([2]; IRAK1 methylated (M) tumours): 216 days | Median PFS ([2]; IRAK1 unmethylated (U) tumours): 130 days | Median PFS ([2]; LIG4 methylated (M) tumours): 173 days | Median PFS ([2]; LIG4 unmethylated (U) tumours): 190 days | Median PFS ([2]; NUDT1 methylated (M) tumours): 187 days | Median PFS ([2]; NUDT1 unmethylated (U) tumours): 99 days | Median PFS ([2]; PAX3 (1) assay methylated (M) tumours): 189 days | Median PFS ([2]; PAX3 (1) assay unmethylated (U) tumours): 126 days | Median PFS ([2]; PAX3 (2) assay methylated (M) tumours): 187 days | Median PFS ([2]; PAX3 (2) assay unmethylated (U) tumours): 127 days | Median PFS ([2]; PRKCB1 methylated (M) tumours): 192 days | Median PFS ([2]; PRKCB1 unmethylated (U) tumours): 168 days | Median PFS ([2]; PROK2 methylated (M) tumours): 182 days | Median PFS ([2]; PROK2 unmethylated (U) tumours): 179 days | Median PFS ([2]; PROP1 methylated (M) tumours): 188 days | Median PFS ([2]; PROP1 unmethylated (U) tumours): 99 days | Median PFS ([2]; PTGS2 methylated (M) tumours): 202 days | Median PFS ([2]; PTGS2 unmethylated (U) tumours): 168 days | Median PFS ([2]; RASSF1 methylated (M) tumours): 209 days | Median PFS ([2]; RASSF1 unmethylated (U) tumours): 164 days | Median PFS ([2]; RBBP8 methylated (M) tumours): 191 days | Median PFS ([2]; RBBP8 unmethylated (U) tumours): 177 days | Median PFS ([2]; RHOB methylated (M) tumours): 112 days | Median PFS ([2]; RHOB unmethylated (U) tumours): 188 days | Median PFS ([2]; SPO11 methylated (M) tumours): 177 days | Median PFS ([2]; SPO11 unmethylated (U) tumours): 190 days | Median PFS ([2]; TBX5 methylated (M) tumours): 188 days | Median PFS ([2]; TBX5 unmethylated (U) tumours): 65 days | Median PFS ([2]; TIPARP methylated (M) tumours): 177 days | Median PFS ([2]; TIPARP unmethylated (U) tumours): 187 days

bevacuzimab: targeted therapy directed against VEGF
survival benefit from bevacizumab [3]: about two

Source: patent US20150292026A1, “METHYLATION MARKERS PREDICTIVE FOR DRUG RESPONSE” (MDxHEALTH SA, priority 2012, published 2015)
